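Step 1: Grow cells in 96-well plates. Step 2: Expose to compound for 48 hours at 5 concentrations. Step 3: Interpolate endpoints linearly; if unreached, use highest concentration. GI50 marks 50% less growth.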 Calls of active or inactive are those of the source. No stated cut-off is given here; in the data, active = GI50 up to about 1.1 µM and inactive = higher.
What was measured:
Assay in all cases: inhibition of tumour cell growth, NCI panel, 48 h
UACC-257 = tested on: UACC-257
SR = tested on: SR
K562 = tested on: K562
OVCAR-4 = tested on: OVCAR-4
MCF7 = tested on: MCF7
HOP-92 = tested on: HOP-92
SK-MEL-28 = tested on: SK-MEL-28
NCI-H226 = tested on: NCI-H226
PC-3 = tested on: PC-3
COLO 205 = tested on: COLO 205
SN12C = tested on: SN12C
BT-549 = tested on: BT-549
U-251 = tested on: U-251
MDA-MB-435 = tested on: MDA-MB-435
SF-539 = tested on: SF-539
HCC 2998 = tested on: HCC 2998
MDA-MB-231 = tested on: MDA-MB-231
HCT-116 = tested on: HCT-116
T47D = tested on: T47D

Structure (SMILES)	GI50 (UACC-257)	GI50 (SR)	GI50 (K562)	GI50 (OVCAR-4)	GI50 (MCF7)	GI50 (HOP-92)	GI50 (SK-MEL-28)	GI50 (NCI-H226)	GI50 (PC-3)	GI50 (COLO 205)	GI50 (SN12C)	GI50 (BT-549)	GI50 (U-251)	GI50 (MDA-MB-435)	GI50 (SF-539)	GI50 (HCC 2998)	GI50 (MDA-MB-231)	GI50 (HCT-116)	GI50 (T47D)
Clc1cc(OCc2nn3c(Cc4ccccc4)nnc3s2)c(Cl)cc1OCc1nn2c(Cc3ccccc3)nnc2s1	> 100 µM (inactive)	0.541 µM (active)	4.93 µM (inactive)	50 µM (inactive)	> 100 µM (inactive)	18.8 µM (inactive)	> 100 µM (inactive)	> 100 µM (inactive)	78.3 µM (inactive)	> 100 µM (inactive)	> 100 µM (inactive)	20.8 µM (inactive)	31.6 µM (inactive)	> 100 µM (inactive)	42.2 µM (inactive)	> 100 µM (inactive)	26.4 µM (inactive)	77.1 µM (inactive)	22.1 µM (inactive)
N#Cc1c(N)c2c(c(-c3ccccc3)c1-c1ccccc1)C(=O)N(NC(=S)Nc1ccccc1)C2=O	> 100 µM (inactive)	68.7 µM (inactive)	88.7 µM (inactive)	51.1 µM (inactive)	60.3 µM (inactive)	34.2 µM (inactive)	47.2 µM (inactive)	> 100 µM (inactive)	30.5 µM (inactive)	75.2 µM (inactive)	> 100 µM (inactive)	89.5 µM (inactive)	> 100 µM (inactive)	> 100 µM (inactive)	89.9 µM (inactive)	> 100 µM (inactive)	> 100 µM (inactive)	56.1 µM (inactive)	48.2 µM (inactive)
Brc1ccc2c(-c3nc(-c4c[nH]c5ccc(Br)cc45)cs3)c[nH]c2c1	8.75 µM (inactive)	3.15 µM (inactive)	3.44 µM (inactive)	9.33 µM (inactive)	0.887 µM (active)	3.44 µM (inactive)	11.3 µM (inactive)	1.94 µM (inactive)	6 µM (inactive)	2.54 µM (inactive)	4.63 µM (inactive)	13.3 µM (inactive)	4.43 µM (inactive)	5.26 µM (inactive)	5.06 µM (inactive)	2.48 µM (inactive)	3.69 µM (inactive)	3.67 µM (inactive)	4.86 µM (inactive)
Brc1ccc2[nH]cc([C@@H]3CN[C@@H](c4c[nH]c5ccc(Br)cc45)CN3)c2c1	8.95 µM (inactive)	1.86 µM (inactive)	1.77 µM (inactive)	4.76 µM (inactive)	3.66 µM (inactive)	1.36 µM (inactive)	13.7 µM (inactive)	7.55 µM (inactive)	3.35 µM (inactive)	1.96 µM (inactive)	6.04 µM (inactive)	14.8 µM (inactive)	4.39 µM (inactive)	3.9 µM (inactive)	10.6 µM (inactive)	6.52 µM (inactive)	3.79 µM (inactive)	4.18 µM (inactive)	8.13 µM (inactive)
O=S(=O)(O)c1ccc(/N=N/c2ccc(/N=N/c3c(O)ccc4ccc(S(=O)(=O)O)cc34)cc2)cc1	> 100 µM (inactive)	> 100 µM (inactive)	> 100 µM (inactive)	> 100 µM (inactive)	> 100 µM (inactive)	> 100 µM (inactive)	> 100 µM (inactive)	> 100 µM (inactive)	> 100 µM (inactive)	> 100 µM (inactive)	> 100 µM (inactive)	> 100 µM (inactive)	> 100 µM (inactive)	> 100 µM (inactive)	> 100 µM (inactive)	> 100 µM (inactive)	> 100 µM (inactive)	> 100 µM (inactive)	> 100 µM (inactive)
O=c1cc(/C=C/c2ccc(O)c(O)c2)oc(/C=C/c2ccc(O)c(O)c2)c1	5.31 µM (inactive)	1.07 µM (active)	2.11 µM (inactive)	3.78 µM (inactive)	3.29 µM (inactive)	2.48 µM (inactive)	11.9 µM (inactive)	5.16 µM (inactive)	5.73 µM (inactive)	8.2 µM (inactive)	4.29 µM (inactive)	4.8 µM (inactive)	2.74 µM (inactive)	1.43 µM (inactive)	2.75 µM (inactive)	2.49 µM (inactive)	4.44 µM (inactive)	4.53 µM (inactive)	1.98 µM (inactive)
O=Cc1ccc(-c2nccc3c2[nH]c2ccccc23)o1	24.5 µM (inactive)	> 100 µM (inactive)	> 100 µM (inactive)	89.5 µM (inactive)	55 µM (inactive)	44.6 µM (inactive)	> 100 µM (inactive)	1.31 µM (inactive)	98.2 µM (inactive)	> 100 µM (inactive)	> 100 µM (inactive)	> 100 µM (inactive)	68.9 µM (inactive)	> 100 µM (inactive)	> 100 µM (inactive)	> 91.6 µM (inactive)	> 85.1 µM (inactive)	55.7 µM (inactive)	47.9 µM (inactive)
CC(=O)NC1C(OCc2ccccc2)OC(CO)C(O)C1OC(C)C(=O)NC(C)C(=O)NC(CCC(=O)NCCCCNc1c2ccccc2nc2cccc([N+](=O)[O-])c12)C(N)=O (stereo unspecified)	0.121 µM (active)	0.00796 µM (active)	0.0106 µM (active)	0.242 µM (active)	0.00995 µM (active)	0.0176 µM (active)	0.163 µM (active)	0.0962 µM (active)	0.0989 µM (active)	0.0327 µM (active)	0.0284 µM (active)	0.196 µM (active)	0.042 µM (active)	0.0325 µM (active)	0.0512 µM (active)	0.013 µM (active)	0.0237 µM (active)	0.00748 µM (active)	0.291 µM (active)
CC(C)(C)c1cc(C(=O)/C=C/c2ccc3c(c2)OCO3)cc(C(C)(C)C)c1O	2.95 µM (inactive)	2.18 µM (inactive)	5.24 µM (inactive)	6.95 µM (inactive)	5.28 µM (inactive)	25.6 µM (inactive)	18.6 µM (inactive)	15.2 µM (inactive)	3.99 µM (inactive)	5.61 µM (inactive)	10.1 µM (inactive)	6.3 µM (inactive)	6.68 µM (inactive)	2.26 µM (inactive)	6.44 µM (inactive)	1.75 µM (inactive)	8.11 µM (inactive)	4.51 µM (inactive)	2.55 µM (inactive)
COC(=O)c1ccc(NCc2cc(O)c3ccccc3c2O)cc1	7.87 µM (inactive)	4.54 µM (inactive)	2.59 µM (inactive)	12.4 µM (inactive)	3.68 µM (inactive)	2.55 µM (inactive)	5.65 µM (inactive)	16.4 µM (inactive)	17.2 µM (inactive)	5.06 µM (inactive)	7.13 µM (inactive)	16.6 µM (inactive)	16.7 µM (inactive)	2.11 µM (inactive)	15.3 µM (inactive)	21.9 µM (inactive)	2.17 µM (inactive)	15.7 µM (inactive)	5.12 µM (inactive)
Cc1[nH]c(-c2ccccc2)c2nc(N(C)C)oc(=O)c12	> 100 µM (inactive)	> 100 µM (inactive)	> 100 µM (inactive)	> 100 µM (inactive)	> 100 µM (inactive)	> 100 µM (inactive)	> 100 µM (inactive)	> 100 µM (inactive)	> 100 µM (inactive)	> 100 µM (inactive)	> 100 µM (inactive)	> 100 µM (inactive)	> 100 µM (inactive)	> 100 µM (inactive)	> 100 µM (inactive)	> 100 µM (inactive)	> 100 µM (inactive)	> 100 µM (inactive)	> 100 µM (inactive)
CN(C)CCn1c(=O)c2ccc(NCCNCCO)c3c(=O)c4ccccc4n(c1=O)c23	0.368 µM (active)	< 0.01 µM (active)	0.0245 µM (active)	0.514 µM (active)	< 0.01 µM (active)	0.03 µM (active)	0.815 µM (active)	0.0348 µM (active)	0.182 µM (active)	0.0703 µM (active)	0.0206 µM (active)	1.21 µM (inactive)	0.0468 µM (active)	0.228 µM (active)	0.0428 µM (active)	< 0.0329 µM (active)	0.22 µM (active)	0.0492 µM (active)	0.129 µM (active)
C=C(C)[C@@H]1CC[C@]2(C(=O)O)CC[C@]3(C)[C@H](CC[C@@H]4[C@@]5(C)CC[C@H](O)C(C)(C)[C@@H]5CC[C@]43C)[C@@H]12 [BETULINIC ACID]	6.03 µM (inactive)	5.53 µM (inactive)	5.13 µM (inactive)	5.83 µM (inactive)	13.7 µM (inactive)	3.27 µM (inactive)	17.1 µM (inactive)	13.2 µM (inactive)	7.48 µM (inactive)	4.63 µM (inactive)	10.8 µM (inactive)	2.53 µM (inactive)	5.53 µM (inactive)	13.7 µM (inactive)	4.03 µM (inactive)	6.31 µM (inactive)	3.91 µM (inactive)	4.27 µM (inactive)	7.13 µM (inactive)
COc1ccc(-c2cc(=O)c3c(O)c(OC)c(OC)c(OC)c3o2)cc1 [GARDENIN B]	> 100 µM (inactive)	0.39 µM (active)	0.498 µM (active)	> 100 µM (inactive)	4.86 µM (inactive)	27.4 µM (inactive)	> 100 µM (inactive)	> 100 µM (inactive)	30 µM (inactive)	7.83 µM (inactive)	> 100 µM (inactive)	16.2 µM (inactive)	15.5 µM (inactive)	0.431 µM (active)	> 61.7 µM (inactive)	1.71 µM (inactive)	12.6 µM (inactive)	13.4 µM (inactive)	26.9 µM (inactive)
